Publication PMC12586182 (Frontiers in Oncology, 2025)

What was measured:
activated B-RAF = activated B-RAF (Homo sapiens, UniProt P15056); assay: Surface plasmon resonance binding (Biacore 1S+); conditions: SPR, B-RAF
[1] = target: biotinylated, inactive MEK1 (Homo sapiens, UniProt Q02750); assay: Surface plasmon resonance binding (Biacore 1S+); conditions: SPR
biotinylated, inactive MEK1, sequence (Q02750 whole entry): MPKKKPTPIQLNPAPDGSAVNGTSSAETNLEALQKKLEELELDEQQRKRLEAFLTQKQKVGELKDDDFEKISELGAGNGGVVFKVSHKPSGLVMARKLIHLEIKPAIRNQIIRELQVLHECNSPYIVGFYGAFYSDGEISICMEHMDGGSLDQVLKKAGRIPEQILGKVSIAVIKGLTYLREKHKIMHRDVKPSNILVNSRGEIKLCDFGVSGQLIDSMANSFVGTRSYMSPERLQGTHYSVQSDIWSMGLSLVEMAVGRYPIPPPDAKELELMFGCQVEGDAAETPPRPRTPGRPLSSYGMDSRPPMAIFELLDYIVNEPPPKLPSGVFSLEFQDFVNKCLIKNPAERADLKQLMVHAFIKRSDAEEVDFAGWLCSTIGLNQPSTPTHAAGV

activated B-RAF, sequence (P15056 whole entry): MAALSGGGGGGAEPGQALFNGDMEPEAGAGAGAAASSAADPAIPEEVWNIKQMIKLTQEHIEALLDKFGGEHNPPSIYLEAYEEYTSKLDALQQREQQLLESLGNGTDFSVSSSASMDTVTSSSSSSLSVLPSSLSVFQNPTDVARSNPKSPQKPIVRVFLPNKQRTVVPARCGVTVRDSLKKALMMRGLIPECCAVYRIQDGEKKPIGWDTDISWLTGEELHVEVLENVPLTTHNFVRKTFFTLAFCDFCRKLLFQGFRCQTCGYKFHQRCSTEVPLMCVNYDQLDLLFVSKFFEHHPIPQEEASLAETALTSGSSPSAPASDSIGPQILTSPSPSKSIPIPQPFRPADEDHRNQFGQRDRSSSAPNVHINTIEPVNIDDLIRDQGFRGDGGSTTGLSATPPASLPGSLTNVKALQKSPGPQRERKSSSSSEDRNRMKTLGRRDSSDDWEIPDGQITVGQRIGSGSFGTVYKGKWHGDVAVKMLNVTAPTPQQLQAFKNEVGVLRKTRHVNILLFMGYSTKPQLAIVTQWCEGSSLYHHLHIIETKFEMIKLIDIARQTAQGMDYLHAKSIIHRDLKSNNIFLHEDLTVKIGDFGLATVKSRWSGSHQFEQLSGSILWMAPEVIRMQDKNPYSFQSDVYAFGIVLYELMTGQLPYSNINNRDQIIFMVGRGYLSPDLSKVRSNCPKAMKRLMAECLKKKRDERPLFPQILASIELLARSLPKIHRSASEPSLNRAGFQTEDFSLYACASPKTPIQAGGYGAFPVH

SMILES	log (kd) (activated B-RAF)	log(ka) (activated B-RAF)	t1/2 (activated B-RAF) [h]	log (kd) [1]	log(ka) [1]	t1/2 [1] [h]
COC(=O)N[C@@H](C)CNc1nccc(-c2cn(C(C)C)nc2-c2cc(Cl)cc(NS(C)(=O)=O)c2F)n1 [encorafenib]	-4.40	5.36	4.8056	–	–	–
CC(=O)Nc1cccc(-n2c(=O)n(C3CC3)c(=O)c3c(Nc4ccc(I)cc4F)n(C)c(=O)c(C)c32)c1 [trametinib]	–	–	–	-3.87	5.34	1.428
